≈ marks a conversion by molar mass, not a printed value. Where two headings read alike, the source gives them in different places.
Columns and labels:
HIV = assay: microbe, parasite or virus in culture; format: cell-based
Procedure: Anti-HIV activity tests in vitro of the compounds according to the present invention were performed as described in J. Med. Chem, 34, 357, 1991. Inhibition by the compounds of virus-induced cytotoxic effect in MT-4 cells was measured as follows.
(§1) MT-4 cells were suspended in culture media at 2.5×10^5 cells/ml and infected with 1000 CCID50 (50% cell culture infective dose) of HIV. Immediately after virus infection, 100 μl of cell suspension was brought into each well of a flat-bottomed microtitray containing various concentrations of the test compounds. After 4 or 5 days incubation at 37° C., efficacy of the compounds was determined by the MTT method. Cytotoxicity of the compounds was assessed in parallel with their antiviral activity, based on viability of mock-infected host cells as determined by the MTT method.

mock-infected MT-4 cells = assay: Cytotoxicity based on viability of mock-infected host cells (MTT method); format: cell-based; settings: mock-infected MT-4 cells, MTT method, 4 or 5 days at 37° C.
Procedure: as §1

[1] = Human immunodeficiency virus 1, MT4, read-out: ED50
[2] = Human immunodeficiency virus 1, MT4, HIV-infected MT-4 cells, MTT method, 4 or 5 days at 37° C., read-out: ED50 (the source's name)

Structure (SMILES) | EC50 (HIV; [1]) [µg/mL] | CD50 (mock-infected MT-4 cells) [µg/mL] | melting point [°C] | EC50 (HIV; [2]) [µg/mL]
CCc1c(Sc2cc(C)cc(C)c2)n(Cc2cc(C)cc(C)c2)c(=O)[nH]c1=O [Example 49, 1-(3,5-Dimethylbenzyl)-5-ethyl-6-(3,5-dimethylphenyl)thio-2,4-pyrimidinedione] | 0.014 (≈ 0.0355 µM) | 7.48 | 180 to 182 | 
Cc1cc(C)cc(Cn2c(Sc3cc(C)cc(C)c3)c(C(C)C)c(=O)[nH]c2=O)c1 [Example 50, 1-(3,5-Dimethylbenzyl)-5-isopropyl-6-(3,5-dimethylphenyl)thio-2,4-pyrimidinedione] | 0.015 (≈ 0.0367 µM) | 8.70 | 164 to 166 | 
CCc1c(Oc2cc(C)cc(C)c2)n(Cc2cc(C)cc(C)c2)c(=O)[nH]c1=O [Example 51, 1-(3,5-Dimethylbenzyl)-5-ethyl-6-(3,5-dimethylphenoxy)-2,4-pyrimidinedione] | 0.13 (≈ 0.343 µM) | 8.01 | 130 to 132 | 
Cc1cc(C)cc(Cn2c(Oc3cc(C)cc(C)c3)c(C(C)C)c(=O)[nH]c2=O)c1 [Example 52, 1-(3,5-Dimethylbenzyl)-5-isopropyl-6-(3,5-dimethyl-phenoxy)-2,4-pyrimidinedione] | 0.098 (≈ 0.25 µM) | 8.20 | 175 to 177 | 
CCc1c(C(=O)c2cc(C)cc(C)c2)n(Cc2cc(C)cc(C)c2)c(=O)[nH]c1=O [Example 53, 1-(3,5-Dimethylbenzyl)-5-ethyl-6-(3,5-dimethylbenzoyl)-2,4-pyrimidinedione] | 0.014 (≈ 0.0359 µM) | 2.50 | 188 to 190 | 
Cc1cc(C)cc(Cn2c(C(=O)c3cc(C)cc(C)c3)c(C(C)C)c(=O)[nH]c2=O)c1 [Example 54, 1-(3,5-Dimethylbenzyl)-5-isopropyl-6-(3,5-dimethylbenzoyl)-2,4-pyrimidinedione] | 0.014 (≈ 0.0346 µM) | 7.10 | 228 to 230 | 
CCc1c(Sc2cc(C)cc(C)c2)n(Cc2cc(OC)cc(OC)c2)c(=O)[nH]c1=O [Example 55, 1-(3,5-Dimethoxybenzyl)-5-ethyl-6-(3,5-dimethylphenyl)thio-2,4-pyrimidinedione] |  | 10.8 | 181 to 183 | 0.071 (≈ 0.166 µM)
COc1cc(Cn2c(Sc3cc(C)cc(C)c3)c(C(C)C)c(=O)[nH]c2=O)cc(OC)c1 [Example 56, 1-(3,5-Dimethoxybenzyl)-5-isopropyl-6-(3,5-dimethyl-phenyl)thio-2,4-pyrimidinedione] |  | 11.34 | 157 to 160 | 0.21 (≈ 0.477 µM)
CCc1c(Oc2cc(C)cc(C)c2)n(Cc2cc(OC)cc(OC)c2)c(=O)[nH]c1=O [Example 57, 1-(3,5-Dimethoxybenzyl)-5-ethyl-6-(3,5-dimethylphenoxy)-2,4-pyrimidinedione] |  | 36.80 | 154 to 156 | 1.37 (≈ 3.34 µM)
COc1cc(Cn2c(Oc3cc(C)cc(C)c3)c(C(C)C)c(=O)[nH]c2=O)cc(OC)c1 [Example 58, 1-(3,5-Dimethoxybenzyl)-5-isopropyl-6-(3,5-dimethylphenoxy)-2,4-pyrimidinedione] |  | >100.00 | 162 to 164 | 0.51 (≈ 1.2 µM)
CCc1c(C(=O)c2cc(C)cc(C)c2)n(Cc2cc(OC)cc(OC)c2)c(=O)[nH]c1=O [Example 59, 1-(3,5-Dimethoxybenzyl)-5-ethyl-6-(3,5-dimethylbenzoyl)-2,4-pyrimidinedione] |  | 69.00 | 208 to 210 | 0.31 (≈ 0.734 µM)
COc1cc(Cn2c(C(=O)c3cc(C)cc(C)c3)c(C(C)C)c(=O)[nH]c2=O)cc(OC)c1 [Example 60, 1-(3,5-Dimethoxybenzyl)-5-isopropyl-6-(3,5-dimethyl-benzoyl)-2,4-pyrimidinedione] |  | 12.09 | 220 to 222 | 0.23 (≈ 0.527 µM)
CCc1c(Sc2cc(C)cc(C)c2)n(Cc2cc(C(F)(F)F)cc(C(F)(F)F)c2)c(=O)[nH]c1=O [Example 61, 1-[3,5-Bis(trifluoromethyl)benzyl]-5-ethyl-6-(3,5-dimethyl-phenyl)thio-2,4-pyrimidinedione] |  | >100.00 | 212 to 213 | > 100
Cc1cc(C)cc(Sc2c(C(C)C)c(=O)[nH]c(=O)n2Cc2cc(C(F)(F)F)cc(C(F)(F)F)c2)c1 [Example 62, 1-[3,5-Bis(trifluoromethyl)benzyl]-5-isopropyl-6-(3,5-dimethylphenyl)thio-2,4-pyrimidinedione] |  | >100.00 | 183 to 185 | > 100
CCc1c(Oc2cc(C)cc(C)c2)n(Cc2cc(C(F)(F)F)cc(C(F)(F)F)c2)c(=O)[nH]c1=O [Example 63, 1-[3,5-Bis(Trifluoromethyl)benzyl]-5-ethyl-6-(3,5-dimethyl-phenoxy)-2,4-pyrimidinedione] |  | >100.00 | 183 to 185 | > 100
Cc1cc(C)cc(Oc2c(C(C)C)c(=O)[nH]c(=O)n2Cc2cc(C(F)(F)F)cc(C(F)(F)F)c2)c1 [Example 64, 1-[3,5-Bis(Trifluoromethyl)benzyl]-5-isopropyl-6-(3,5-dimethylphenoxy)-2,4-pyrimidinedione] |  | >100.00 | 182 to 183 | > 100
CCc1c(C(=O)c2cc(C)cc(C)c2)n(Cc2cc(C(F)(F)F)cc(C(F)(F)F)c2)c(=O)[nH]c1=O [Example 65, 1-[3,5-Bis(Trifluoromethyl)benzyl]-5-ethyl-6-(3,5-dimethyl-benzoyl)-2,4-pyrimidinedione] |  | >100.00 | 241 to 243 | > 100
Cc1cc(C)cc(C(=O)c2c(C(C)C)c(=O)[nH]c(=O)n2Cc2cc(C(F)(F)F)cc(C(F)(F)F)c2)c1 [Example 66, 1-[3,5-Bis(Trifluoromethyl)benzyl]-5-isopropyl-6-(3,5-dimethyl-benzoyl)-2,4-pyrimidinedione] |  | 8.14 | 178 to 180 | 1.75 (≈ 3.41 µM)
CCc1c(Sc2cc(C)cc(C)c2)n(Cc2cc(F)ccc2F)c(=O)[nH]c1=O [Example 67, 1-(2,5-Difluorobenzyl)-5-ethyl-6-(3,5-dimethylphenyl)thio-2,4-pyrimidinedione] |  | 12.40 | 214 to 216 | 0.008 (≈ 0.0199 µM)
Cc1cc(C)cc(Sc2c(C(C)C)c(=O)[nH]c(=O)n2Cc2cc(F)ccc2F)c1 [Example 68, 1-(2,5-Difluorobenzyl)-5-isopropyl-6-(3,5-dimethylphenyl)thio-2,4-pyrimidinedione] |  | 4.15 | 192 to 194 | 0.005 (≈ 0.012 µM)
CCc1c(Oc2cc(C)cc(C)c2)n(Cc2cc(F)ccc2F)c(=O)[nH]c1=O [Example 69, 1-(2,5-Difluorobenzyl)-5-ethyl-6-(3,5-dimethylphenoxy)-2,4-pyrimidinedione] |  | >100.00 | 231 to 233 | 0.034 (≈ 0.088 µM)
Cc1cc(C)cc(Oc2c(C(C)C)c(=O)[nH]c(=O)n2Cc2cc(F)ccc2F)c1 [Example 70, 1-(2,5-Difluorobenzyl)-5-isopropyl-6-(3,5-dimethylphenoxy)-2,4-pyrimidinedione] |  | >100.00 | 214 to 216 | 0.014 (≈ 0.035 µM)
CCc1c(C(=O)c2cc(C)cc(C)c2)n(Cc2cc(F)ccc2F)c(=O)[nH]c1=O [Example 71, 1-(2,5-Difluorobenzyl)-5-ethyl-6-(3,5-dimethylbenzoyl)-2,4-pyrimidinedione] |  | >100.00 | 135 to 137 | 0.004 (≈ 0.01 µM)
Cc1cc(C)cc(C(=O)c2c(C(C)C)c(=O)[nH]c(=O)n2Cc2cc(F)ccc2F)c1 [Example 72, 1-(2,5-Difluorobenzyl)-5-isopropyl-6-(3,5-dimethylbenzoyl)-2,4-pyrimidinedione] |  | 5.26 | 205 to 207 | 0.003 (≈ 0.00727 µM)
CCc1c(Sc2cc(C)cc(C)c2)n(Cc2cc(F)cc(F)c2)c(=O)[nH]c1=O [Example 73, 1-(3,5-Difluorobenzyl)-5-ethyl-6-(3,5-dimethylphenyl)thio-2,4-pyrimidinedione] |  | >100.00 | 219 to 221 | 0.016 (≈ 0.0398 µM)
Cc1cc(C)cc(Sc2c(C(C)C)c(=O)[nH]c(=O)n2Cc2cc(F)cc(F)c2)c1 [Example 74, 1-(3,5-Difluorobenzyl)-5-isopropyl-6-(3,5-dimethylphenyl)thio-2,4-pyrimidinedione] |  | 10.50 | 203 to 205 | 0.013 (≈ 0.0312 µM)
CCc1c(Oc2cc(C)cc(C)c2)n(Cc2cc(F)cc(F)c2)c(=O)[nH]c1=O [Example 75, 1-(3,5-Difluorobenzyl)-5-ethyl-6-(3,5-dimethylphenoxy)-2,4-pyrimidinedione] |  | 14.30 | 178 to 180 | > 14.3
Cc1cc(C)cc(Oc2c(C(C)C)c(=O)[nH]c(=O)n2Cc2cc(F)cc(F)c2)c1 [Example 76, 1-(3,5-Difluorobenzyl)-5-isopropyl-6-(3,5-dimethylphenoxy)-2,4-pyrimidinedione] |  | 12.10 | 186 to 189 | 0.022 (≈ 0.0549 µM)

From patent publication US6987114B1, “Antiviral pyrimidinedione derivatives and process for the preparation thereof” (Samjin Pharmaceutical Co., Ltd, priority 1999, dated 2006)
